Laboratory results reported in patent publication US20240299591A1, “Antimicrobial Peptides and Their Use” (priority 2021, published 2024).
≈ marks a conversion by molar mass, not a printed value. Where a SMILES comes first, the peptide text is derived from it. [ ]: non-standard residue; d: D form. The star is where a group is joined. X1 = CN1/C(=C/C=C(/C=C/C2=[N+](C)c3ccccc3C2(C)C)c2ccc(C(=O)*)cn2)C(C)(C)c2ccccc21; X2 = O=C1OC2(c3ccc(O)cc3Oc3cc(O)ccc32)c2cccc(C(=O)*)c21

Experiments:
Format in all cases: cell-based
[1] = tested on: Aspergillus fumigatus; conditions: 24 h
Protocol: The assays were performed using Nunc 262162 U96 polystyrene round bottomed clear plates (www.nuncbrand.com).
(§1) When testing the peptides against A. fumigatus, peptides at different concentrations were mixed with A. fumigatus conidia to reach a final volume of 100 μL per well. The final conidial concentration was 5×10^5 cells/mL in 10% Vogel's medium. After 24 h of incubation at 37° C. in 96 well plates, fungal growth with the different peptide concentrations was determined by measurement of the optical density at 610 nm in a TriStar LB 941 Multimode Microplate Reader. The IC50 values were determined using four parameter logistic regression formula provided by Sigma Plot 10.0. Values are represented as means±SEM from two independent experiments (n=3).
(§2) The IC50 of the fluorescently labelled peptides cannot be accurately determined using the optical density method described in the last section. This is because the fluorophore structures absorbed light at 610 nm which was the wavelength used for the optical density measurements. In order to overcome this, the BacTiter-Glo™ Microbial Cell Viability Assay kit purchased from Promega was used. The BacTiter-Glo™ Reagent relies on the properties of a proprietary thermostable luciferase (Ultra-Glo™ Recombinant Luciferase) and a proprietary formulation for extracting ATP from fungal cells which will generates a ‘glow-type’ luminescent signal. This is produced by the luciferase reaction shown in Scheme 1, which has a signal half-life of over 30 min depending on the experimental conditions. The luminescent signal is proportional to the amount of ATP present, which is directly proportional to the number of living cells in culture.
(§3) The IC50 assays for all fluorescently labelled peptides were performed using Greiner CELLSTAR white polystyrene wells flat bottomed 96 well plates. The incubation conditions remained the same for the optical density measurement described in the previous section. Once the incubation procedure was finished, the plate was equilibrated to room temperature. A mixture of BacTiter-Glo™ buffer and substrate was then added to the plate (100 μL per well). The plate was shaken for 5 min and read using the Tristar […] luminometer. Data analysis was performed using Sigma Plot 10.0. All values shown are presented as means±SEM from two independent experiments (n=3).

[2] = tested on: Fusarium oxysporum; conditions: 24 h
Protocol: Dose dependent inhibition of fungal growth by all non-labelled peptides (indicated by IC50 values) was determined via this methodology. The assays were performed using Nunc 262162 U96 polystyrene round bottomed clear plates (www.nuncbrand.com).
as §1
When testing the peptides against N. crassa and F. oxysporum, experiments were carried as described above apart from the incubation temperature was changed to 25° C. for N. crassa and 35° C. for F. oxysporum.
as §2, §3

[3] = Viability of reconstructed cornea-like epithelium (eye irritation model); conditions: human, reconstructed cornea-like epithelium (RhCE, EpiOcular™)
Protocol: (§4) FIG. 4a is a graph of the viability reconstructed cornea-like epithelium (RhCE, EpiOcular™) after incubation with MFIGA001. NC=Negative Control; PC=Positive Control. FIG. 4b is a graph of the viability reconstructed cornea-like epithelium (RhCE, EpiOcular™) after incubation with 10 µM of MFIGA001a and MFIGAF001b. NC=Negative Control; PC=Positive Control; A2=MFIGAF001a; and B1=MFIGAF001b.
(§5) MFIGAF001 was also assessed independently by a CRO (Evotec) in an OECD compliant reconstructed cornea-like epithelial cell model (RhCE, EpiOcular™).

[4] = tested on: reconstructed cornea-like epithelium (RhCE, EpiOcular™); experiment: as above
Protocol: as §4, §5

[5] = tested on: C. albicans, F. oxysporum, A. fumigatus, and C. neoformans; experiment: Live cell imaging, fluorescent labelling of pathogenic fungi; design: dose or concentration left out as unconfirmed; conditions: 15 min incubation at 37° C. in RPMI
Protocol: The N. crassa mat A WT used for confocal live-cell imaging was grown on 100% Vogel's agar medium at 25° C. for 3-5 days before the spores were harvested. The A. fumigatus CEA10 strain used for confocal live-cell imaging was grown on 100% Vogel's medium at 37° C. for 4-5 days before the spores were harvested. Before the confocal experiments were performed, N. crassa spores were incubated in eight-well slide culture chambers for 3 h at 25° C. in liquid 10% Vogel's medium and A. fumigatus spores were incubated for 16 h at 25° C. in liquid 10% Vogel's medium in order to allow germination to fully take place for imaging.
Live-cell imaging of germinated fungi spores was performed using a Leica TCS SP8 confocal laser scanning microscope equipped with photo multiplier tubes (PMT), hybrid GaAsP (HyD) detectors and a 63× water immersion objective. A Leica turntable white light laser (WLL, 450-750 nm), argon laser (458 nm, 476 nm, 488 nm and 496 nm) and UV laser (405 nm) were used for fluorescence excitation.
The major pathogenic fungi include C. albicans, F. oxysporum, A. fumigatus, and C. neoformans.

Compound | IC50 Aspergillus fumigatus [1] | IC50 Fusarium oxysporum [2] | viability at 10 µM [3] | Toxicity, reconstructed cornea-like epithelium (FIG. 4) [4] | Fluorescent labelling of pathogenic fungi [5]
C[C@@H](NC(=O)[C@H](CCCCN)NC(=O)[C@H](CCCCN)NC(=O)[C@@H](N)CCCNC(=N)N)C(=O)N[C@@H](Cc1c[nH]c2ccccc12)C(=O)N[C@@H](Cc1ccccc1)C(=O)N[C@@H](Cc1c[nH]c2ccccc12)C(=O)NCC(=O)O [MFIGAF000, NH2-Arg-Lys-Lys-ala-Trp-Phe-Trp-Gly-COOH] (HELM PEPTIDE1{R.K.K.[dA].W.F.W.G}$$$$V2.0) | 5.3 mg/L (≈ 4.92 µM) | 4.2 mg/L (≈ 3.9 µM) | – | – | –
N=C(N)NCCC[C@@H]1NC(=O)CNC(=O)[C@H](CCCCNC(=O)c2cccc3c2C(=O)OC32c3ccc(O)cc3Oc3cc(O)ccc32)NC(=O)[C@H](Cc2c[nH]c3ccccc23)NC(=O)[C@H](Cc2ccccc2)NC(=O)[C@H](Cc2c[nH]c3ccccc23)NC(=O)[C@@H](Cc2ccccc2)NC(=O)[C@H](CCCCN)NC(=O)[C@H](CCCCN)NC1=O [MFIGAF001b, Cyclo(Arg-Lys-Lys-phe-Trp-Phe-Trp-Lys(CF)-Gly)] (cyclo(FWK(X2)GRKK[dF]W)) | 2.1 mg/L (≈ 1.29 µM) | 2.3 mg/L (≈ 1.42 µM) | 99.1% | no obvious toxicity | label all major pathogenic fungi that cause fungal keratitis
CN1/C(=C/C=C(/C=C/C2=[N+](C)c3ccccc3C2(C)C)c2ccc(C(=O)NCCCC[C@@H]3NC(=O)[C@H](Cc4c[nH]c5ccccc45)NC(=O)[C@H](Cc4ccccc4)NC(=O)[C@H](Cc4c[nH]c5ccccc45)NC(=O)[C@@H](Cc4ccccc4)NC(=O)[C@H](CCCCN)NC(=O)[C@H](CCCCN)NC(=O)[C@H](CCCNC(=N)N)NC3=O)cn2)C(C)(C)c2ccccc21 [MFIGAF001c, Cyclo(Arg-Lys-Lys-phe-Trp-Phe-Trp-Lys(Cy5))] (cyclo(FWK(X1)RKK[dF]W)) | 1.5 mg/L | 1.8 mg/L | – | – | –
N=C(N)NCCC[C@@H]1NC(=O)[C@H](CCCCNC(=O)c2cccc3c2C(=O)OC32c3ccc(O)cc3Oc3cc(O)ccc32)NC(=O)[C@H](Cc2c[nH]c3ccccc23)NC(=O)[C@H](Cc2ccccc2)NC(=O)[C@H](Cc2c[nH]c3ccccc23)NC(=O)[C@@H](Cc2ccccc2)NC(=O)[C@H](CCCCN)NC(=O)[C@H](CCCCN)NC1=O [MFIGAF001d, Cyclo(Arg-Lys-Lys-phe-Trp-Phe-Trp-Lys(CF))] (cyclo(FWK(X2)RKK[dF]W)) | 2.9 mg/L (≈ 1.85 µM) | 3.0 mg/L (≈ 1.92 µM) | – | – | –
N=C(N)NCCC[C@H](N)C(=O)N[C@@H](CCCCN)C(=O)N[C@@H](CCCCN)C(=O)N[C@H](Cc1ccccc1)C(=O)N[C@@H](Cc1c[nH]c2ccccc12)C(=O)N[C@@H](Cc1ccccc1)C(=O)N[C@@H](Cc1c[nH]c2ccccc12)C(=O)NCC(=O)O [MFIGAF002, NH2-Arg-Lys-Lys-phe-Trp-Phe-Trp-Gly-COOH] (HELM PEPTIDE1{R.K.K.[dF].W.F.W.G}$$$$V2.0) | 2.8 mg/L (≈ 2.43 µM) | 3.5 mg/L (≈ 3.03 µM) | – | – | –
N=C(N)NCCC[C@H](N)C(=O)N[C@@H](CCCCN)C(=O)N[C@@H](CCCCN)C(=O)N1CCC[C@H]1C(=O)N[C@@H](Cc1c[nH]c2ccccc12)C(=O)N[C@@H](Cc1ccccc1)C(=O)N[C@@H](Cc1c[nH]c2ccccc12)C(=O)NCC(=O)O [MFIGAF003, NH2-Arg-Lys-Lys-pro-Trp-Phe-Trp-Gly-COOH] | 5.2 mg/L (≈ 4.71 µM) | 4.1 mg/L (≈ 3.71 µM) | – | – | –
N=C(N)NCCC[C@H](N)C(=O)N[C@@H](CCCCN)C(=O)N[C@@H](CCCCN)C(=O)N1CCC[C@@H]1C(=O)N[C@@H](Cc1c[nH]c2ccccc12)C(=O)N[C@@H](Cc1ccccc1)C(=O)N[C@@H](Cc1c[nH]c2ccccc12)C(=O)NCC(=O)O [MFIGAF004] | 5.2 mg/L (≈ 4.71 µM) | 4.1 mg/L (≈ 3.71 µM) | – | – | –
C[C@H]1NC(=O)[C@H](CCCCN)NC(=O)[C@H](CCCCN)NC(=O)[C@H](CCCNC(=N)N)NC(=O)CNC(=O)[C@H](Cc2c[nH]c3ccccc23)NC(=O)[C@H](Cc2ccccc2)NC(=O)[C@H](Cc2c[nH]c3ccccc23)NC1=O [MFIGAF005, Cyclo(Arg-Lys-Lys-ala-Trp-Phe-Trp-Gly)] (HELM PEPTIDE1{F.W.G.R.K.K.[dA].W}$PEPTIDE1,PEPTIDE1,1:R1-8:R2$$$V2.0) | 6.3 mg/L (≈ 5.94 µM) | 3.1 mg/L (≈ 2.92 µM) | – | – | –
N=C(N)NCCC[C@@H]1NC(=O)CNC(=O)[C@H](Cc2c[nH]c3ccccc23)NC(=O)[C@H](Cc2ccccc2)NC(=O)[C@H](Cc2c[nH]c3ccccc23)NC(=O)[C@@H]2CCCN2C(=O)[C@H](CCCCN)NC(=O)[C@H](CCCCN)NC1=O [MFIGAF007, Cyclo(Arg-Lys-Lys-pro-Trp-Phe-Trp-Gly)] | 5.2 mg/L (≈ 4.79 µM) | 3.4 mg/L (≈ 3.13 µM) | – | – | –
N=C(N)NCCC[C@@H]1NC(=O)CNC(=O)[C@H](Cc2c[nH]c3ccccc23)NC(=O)[C@H](Cc2ccccc2)NC(=O)[C@H](Cc2c[nH]c3ccccc23)NC(=O)[C@H]2CCCN2C(=O)[C@H](CCCCN)NC(=O)[C@H](CCCCN)NC1=O [MFIGAF008] | 5.5 mg/L (≈ 5.06 µM) | 3.8 mg/L (≈ 3.5 µM) | – | – | –
H-RKKWFW-NH2 [PAF26, NH2-Arg-Lys-Lys-Trp-Phe-Trp-CONH2, reference compound] | 8.0 mg/L | 7.2 mg/L | – | – | –
